Results as given in article PMC11003488 (Journal of Enzyme Inhibition and Medicinal Chemistry, 2023).
“And” between values parts separate entries of the source, which are not always exact repeats. Equal entries are not always repeated. Where two headings read alike, the source gives them in different places.

Key:
Leukaemia cell lines = experiment: NCI-60 SRB growth inhibition, subpanel; type: cell-based, human; conditions: Homo sapiens
OVCAR-8 = experiment: NCI-60 SRB growth inhibition, one-dose and five-dose; type: cell-based; conditions: Homo sapiens, OVCAR-8, read-out: percent growth inhibition
NSCLC cell lines = experiment: NCI-60 SRB growth inhibition, subpanel; type: cell-based, human; conditions: for GI50: Homo sapiens
RPMI-8226 = experiment: NCI-60 SRB growth inhibition, one-dose and five-dose; type: cell-based; conditions: Homo sapiens
Caspase-3 [1] = experiment: Protein level by ELISA assay in HCT-116; type: cell-based, human; conditions: HCT-116, IC50 of compound, 24 h, vs 0.1% DMSO
MDA-MB-231/ATCC = experiment: NCI-60 SRB growth inhibition, one-dose and five-dose; type: cell-based; conditions: Homo sapiens, MDA-MB-231
RXF 393 = experiment: as above; type: cell-based; conditions: Homo sapiens
Caspase-3 [2] = experiment: Gene expression by RT-qPCR in HCT-116; conditions: HCT-116, 24 h, IC50 of compound; vs 0.1% DMSO; 2^-ΔΔct
HL-60(TB) = experiment: cells; type: cell-based; conditions: Homo sapiens
Human VEGFR-2 = Human VEGFR-2 (Homo sapiens, UniProt P35968); experiment: VEGFR-2 inhibition assay; type: biochemical
Chain of Human VEGFR-2 (P35968 20-1356): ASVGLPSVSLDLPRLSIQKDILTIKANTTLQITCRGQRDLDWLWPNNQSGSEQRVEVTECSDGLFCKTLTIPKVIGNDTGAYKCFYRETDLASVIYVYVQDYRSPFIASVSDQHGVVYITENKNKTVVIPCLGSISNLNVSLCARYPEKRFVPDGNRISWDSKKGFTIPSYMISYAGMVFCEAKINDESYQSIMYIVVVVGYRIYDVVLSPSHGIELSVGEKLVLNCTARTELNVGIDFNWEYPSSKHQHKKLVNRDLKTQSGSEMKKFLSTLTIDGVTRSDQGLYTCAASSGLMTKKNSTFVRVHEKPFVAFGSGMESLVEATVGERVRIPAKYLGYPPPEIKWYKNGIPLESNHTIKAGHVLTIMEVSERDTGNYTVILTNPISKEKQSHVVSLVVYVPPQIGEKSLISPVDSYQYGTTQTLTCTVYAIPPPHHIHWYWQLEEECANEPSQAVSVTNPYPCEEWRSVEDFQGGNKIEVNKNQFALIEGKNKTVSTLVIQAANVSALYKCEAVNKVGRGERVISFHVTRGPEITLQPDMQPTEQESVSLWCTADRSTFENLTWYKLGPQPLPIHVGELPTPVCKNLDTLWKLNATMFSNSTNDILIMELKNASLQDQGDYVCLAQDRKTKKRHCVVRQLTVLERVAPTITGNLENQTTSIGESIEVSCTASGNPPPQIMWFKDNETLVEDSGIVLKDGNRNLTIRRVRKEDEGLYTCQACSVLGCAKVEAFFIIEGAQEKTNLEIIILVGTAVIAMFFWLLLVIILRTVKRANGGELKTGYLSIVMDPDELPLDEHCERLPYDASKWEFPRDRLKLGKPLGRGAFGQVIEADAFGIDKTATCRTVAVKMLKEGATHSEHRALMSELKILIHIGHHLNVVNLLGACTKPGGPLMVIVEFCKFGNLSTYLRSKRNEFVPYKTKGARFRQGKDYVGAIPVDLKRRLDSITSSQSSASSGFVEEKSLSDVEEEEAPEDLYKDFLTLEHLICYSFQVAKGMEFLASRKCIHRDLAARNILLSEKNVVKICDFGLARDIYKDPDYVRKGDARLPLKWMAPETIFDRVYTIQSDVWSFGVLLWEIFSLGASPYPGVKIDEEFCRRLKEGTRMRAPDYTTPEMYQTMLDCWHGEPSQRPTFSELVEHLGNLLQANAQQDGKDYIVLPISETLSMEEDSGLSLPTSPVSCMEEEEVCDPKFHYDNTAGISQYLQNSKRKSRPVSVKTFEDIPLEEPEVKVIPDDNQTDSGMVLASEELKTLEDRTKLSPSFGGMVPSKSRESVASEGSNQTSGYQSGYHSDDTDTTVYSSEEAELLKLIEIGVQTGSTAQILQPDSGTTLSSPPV

Renal cancer cell lines = experiment: NCI-60 SRB growth inhibition, subpanel; type: cell-based, human; conditions: for GI50: Homo sapiens
MDA-MB-468 = experiment: NCI-60 SRB growth inhibition, one-dose and five-dose; type: cell-based; conditions: Homo sapiens
Breast cancer cell lines = experiment: NCI-60 SRB growth inhibition, subpanel; type: cell-based, human; conditions: for GI50: Homo sapiens
UACC-257 = experiment: NCI-60 SRB growth inhibition, one-dose and five-dose; type: cell-based; conditions: Homo sapiens
CAKI-1 = experiment: as above; type: cell-based; conditions: Homo sapiens
Bax [3] = experiment: Protein level by ELISA assay in HCT-116; type: cell-based, human; conditions: HCT-116, IC50 of compound, 24 h, vs 0.1% DMSO
HCT-116 (colon cancer) [4] = experiment: Apoptosis AV/PI assay by flow cytometry; type: cell-based, human; conditions: HCT-116, 24 h, IC50 of compound
SR = experiment: NCI-60 SRB growth inhibition, one-dose and five-dose; type: cell-based; conditions: Homo sapiens
UO-31 = experiment: as above; type: cell-based; conditions: Homo sapiens, UO-31
[5] = test system: Ovarian cancer cell lines; experiment: NCI-60 SRB growth inhibition, subpanel; type: cell-based, human; conditions: for GI50: Homo sapiens
[6] = Cytotoxicity towards normal fibroblasts, safety index; type: cell-based, human; conditions: human, WI-38 normal fibroblast cells
[7] = test system: WI-38 normal human fibroblast cells; experiment: as above; type: cell-based; conditions: WI-38 versus cancer cell lines
MDA-MB-435 = experiment: NCI-60 SRB growth inhibition, one-dose and five-dose; type: cell-based; conditions: Homo sapiens
CNS cancer cell lines = experiment: NCI-60 SRB growth inhibition, subpanel; type: cell-based, human; conditions: for GI50: Homo sapiens
A549/ATCC = experiment: NCI-60 SRB growth inhibition, one-dose and five-dose; type: cell-based; conditions: Homo sapiens
[8] = test system: Prostate cancer cell lines; experiment: NCI-60 SRB growth inhibition, subpanel; type: cell-based, human; conditions: for GI50: Homo sapiens
SF-295 = experiment: NCI-60 SRB growth inhibition, one-dose and five-dose; type: cell-based; conditions: Homo sapiens
Melanoma cell lines = experiment: NCI-60 SRB growth inhibition, subpanel; type: cell-based, human; conditions: for GI50: Homo sapiens
SNB-19 = experiment: NCI-60 SRB growth inhibition, one-dose and five-dose; type: cell-based; conditions: Homo sapiens
SW-620 = experiment: as above; type: cell-based; conditions: Homo sapiens
Bax [9] = experiment: Gene expression by RT-qPCR in HCT-116; conditions: HCT-116, 24 h
MOLT-4 = experiment: NCI-60 SRB growth inhibition, one-dose and five-dose; type: cell-based; conditions: Homo sapiens
HCT-116 (colon cancer) [10] = experiment: Cell cycle analysis by PI flow cytometry; type: cell-based, human; conditions: HCT-116, 24 h, IC50 of compound
SF-539 = experiment: NCI-60 SRB growth inhibition, one-dose and five-dose; type: cell-based; conditions: Homo sapiens
Colon cancer cell lines = experiment: NCI-60 SRB growth inhibition, subpanel; type: cell-based, human; conditions: for GI50: Homo sapiens
DU-145 = experiment: NCI-60 SRB growth inhibition, one-dose and five-dose; type: cell-based; conditions: Homo sapiens
SN12C = experiment: as above; type: cell-based; conditions: Homo sapiens
TNF-α = experiment: Gene expression by RT-qPCR in HCT-116; conditions: HCT-116, 24 h, IC50 of compound; vs 0.1% DMSO; 2^-ΔΔct

SMILES: O=C(/C=C/c1cccnc1)c1cccc(NCc2ccc(CO)cc2)c1 [Compound 5e, (E)-1–(3-((4-(hydroxymethyl)benzyl)amino)phenyl)-3-(pyridin-3-yl)prop-2-en-1-one]
- GI50 (Leukaemia cell lines; read-out: GI50 MG-MID): 3.29 µM
- GI50 (Leukaemia cell lines; read-out: MG-MID GI50): 3.29 µM
- inhibition at 10 µM (OVCAR-8): 97.2%
- GI50 (NSCLC cell lines; read-out: GI50 MG-MID): 13.6 µM
- GI50 (NSCLC cell lines; read-out: MG-MID GI50): 13.6 µM
- SI (Selectivity Index) (NSCLC cell lines; full panel MG-MID / NSCLC subpanel MG-MID): 0.73
- GI50 (RPMI-8226; RPMI-8226): 2.27 µM
- inhibition at 10 µM (RPMI-8226; RPMI-8226, read-out: percent growth inhibition): 133%
- caspase-3 protein level (Caspase-3 [1]): 58.44 fold
- GI50 (MDA-MB-231/ATCC): 3.75 µM
- GI50 (RXF 393; RXF 393): 13.7 µM
- inhibition at 10 µM (RXF 393; RXF 393, read-out: percent growth inhibition): 121%
- Caspase-3 gene expression fold change (Caspase-3 [2]): 2.28 ± 0.14 fold
- GI50 (HL-60(TB); HL-60): 4.23 µM
- inhibition at 10 µM (HL-60(TB); HL-60, read-out: percent growth inhibition): 118%
- IC50 (Human VEGFR-2): 0.37 ± 0.012 µM
- GI50 (Renal cancer cell lines; read-out: GI50 MG-MID): 13 µM
- GI50 (Renal cancer cell lines; read-out: MG-MID GI50): 13 µM
- SI (Selectivity Index) (Renal cancer cell lines; full panel MG-MID / Renal Cancer subpanel MG-MID): 0.77
- GI50 (MDA-MB-468; MDA-MB-468): 4 µM
- inhibition at 10 µM (MDA-MB-468; MDA-MB-468, read-out: percent growth inhibition): 153%
- GI50 (Breast cancer cell lines; read-out: GI50 MG-MID): 7.2 µM
- GI50 (Breast cancer cell lines; read-out: MG-MID GI50): 7.2 µM
- SI (Selectivity Index) (Breast cancer cell lines; full panel MG-MID / Breast Cancer subpanel MG-MID): 1.38
- GI50 (UACC-257; UACC-257): 14.7 µM
- inhibition at 10 µM (UACC-257; UACC-257, read-out: percent growth inhibition): 61.4%
- GI50 (CAKI-1; CAKI-1): 13.5 µM
- inhibition at 10 µM (CAKI-1; CAKI-1, read-out: percent growth inhibition): 42.3%
- Bax protein level (Bax [3]): 3.14 fold
- % Early apoptotic cells (LR) (HCT-116 (colon cancer) [4]): 0.05 ± 0.001%
- % Late apoptotic cells (UL) (HCT-116 (colon cancer) [4]): 94.74 ± 8.9%
- % Necrotic cells (UR) (HCT-116 (colon cancer) [4]): 2.71 ± 0.33%
- % Viable cells (LL) (HCT-116 (colon cancer) [4]): 2.50 ± 0.12%
- GI50 (SR): 2.62 µM
- GI50 (UO-31): 11.2 µM
- GI50 ([5]; read-out: GI50 MG-MID): 11.2 µM
- GI50 ([5]; read-out: MG-MID GI50): 11.2 µM
- SI (Selectivity Index) ([5]; full panel MG-MID / Ovarian Cancer subpanel MG-MID): 0.89
- GI50 at 48 h [6]: > 100 µM
- Safety index [7]: >1
- GI50 (MDA-MB-435; MDA-MB-435): 5.26 µM
- inhibition at 10 µM (MDA-MB-435; MDA-MB-435, read-out: percent growth inhibition): 58.7%
- GI50 (CNS cancer cell lines; read-out: GI50 MG-MID): 12.2 µM
- GI50 (CNS cancer cell lines; read-out: MG-MID GI50): 12.2 µM
- SI (Selectivity Index) (CNS cancer cell lines; full panel MG-MID / CNS Cancer subpanel MG-MID): 0.82
- GI50 (A549/ATCC; A549): 16.9 µM
- inhibition at 10 µM (A549/ATCC; A549, read-out: percent growth inhibition): 16.4%
- GI50 ([8]; read-out: GI50 MG-MID): 12.2 µM
- GI50 ([8]; read-out: MG-MID GI50): 12.2 µM
- SI (Selectivity Index) ([8]; full panel MG-MID / Prostatic Cancer subpanel MG-MID): 0.82
- GI50 (SF-295; SF-295): 14.5 µM
- inhibition at 10 µM (SF-295; SF-295, read-out: percent growth inhibition): 39.8%
- GI50 (Melanoma cell lines; read-out: GI50 MG-MID): 10.6 µM
- GI50 (Melanoma cell lines; read-out: MG-MID GI50): 10.6 µM
- SI (Selectivity Index) (Melanoma cell lines; full panel MG-MID / Melanoma subpanel MG-MID): 0.94
- GI50 (SNB-19; SNB-19): 12.4 µM
- inhibition at 10 µM (SNB-19; SNB-19, read-out: percent growth inhibition): 74.9%
- GI50 (SW-620; SW-620): 2.06 µM
- inhibition at 10 µM (SW-620; SW-620, read-out: percent growth inhibition): 140%
- Bax gene expression fold change (Bax [9]; IC50 of compound, vs 0.1% DMSO, 2^-ΔΔct): 5 fold and 5.00 ± 1.1 fold
- Bax/Bcl-2 ratio (Bax [9]; ratio of gene expression fold changes): 4.5
- GI50 (MOLT-4; MOLT-4): 2.69 µM
- inhibition at 10 µM (MOLT-4; MOLT-4, read-out: percent growth inhibition): 120%
- % G0-G1 (HCT-116 (colon cancer) [10]): 30.02 ± 7.1%
- % G2M (HCT-116 (colon cancer) [10]): 10.42 ± 1.7%
- % S (HCT-116 (colon cancer) [10]): 10.55 ± 3.5%
- % SubG0-G1 (HCT-116 (colon cancer) [10]): 49.01 ± 7.2%
- GI50 (SF-539; SF-539): 14.5 µM
- inhibition at 10 µM (SF-539; SF-539, read-out: percent growth inhibition): 98.5%
- GI50 (Colon cancer cell lines; read-out: GI50 MG-MID): 6.42 µM
- GI50 (Colon cancer cell lines; read-out: MG-MID GI50): 6.42 µM
- SI (Selectivity Index) (Colon cancer cell lines; full panel MG-MID / Colon Cancer subpanel MG-MID): 1.55
- GI50 (DU-145; DU-145): 12.8 µM
- inhibition at 10 µM (DU-145; DU-145, read-out: percent growth inhibition): 55%
- GI50 (SN12C): 12.3 µM
- inhibition at 10 µM (SN12C; read-out: percent growth inhibition): 94.4%
- TNF-α gene expression fold change (TNF-α): 372 fold and 372.22 ± 10.8 fold
